± gives the expanded uncertainty stated by the source.
Legend:
[1] = Crystal; Closed cell (Static) method
[2] = Solid-liquid equilibrium temperature; conditions: Crystal, Closed cell (Static) method

## CCCCCCCCCCCCCCCCC [heptadecane]
[1]
  Normal melting temperature: 22.20 ± 0.4 °C
[2]; 20800 kPa
  Solid-liquid equilibrium temperature: 299.75 ± 0.46 K
[2]; 40100 kPa
  Solid-liquid equilibrium temperature: 304.05 ± 0.48 K
[2]; 60100 kPa
  Solid-liquid equilibrium temperature: 308.3 ± 0.49 K
[2]; 80100 kPa
  Solid-liquid equilibrium temperature: 312.4 ± 0.5 K
[2]; 99300 kPa
  Solid-liquid equilibrium temperature: 316.5 ± 0.51 K
